Like-named read-outs stand apart in the source and are kept apart here. Numbered stars: 1 amine (or outer) side, 2 acyl side, 3 side chain; on linkers, the order of the positions; unused ones are H or OH. Square brackets hold non-standard residues; d marks the D form. Peptide text beside a SMILES is read from it. ξ: configuration not given here. X1 = CN(C)C1(CS[C@H](C(=O)[*:2])N(C)[*:1])CCC1; ξNMeBmt = C/C=C/C[C@@H](C)[C@@H](O)C(NC)C(=O)O; X2 = CC(C)[C@H](C(=O)[*:2])N(Cc1ccccc1)[*:1]; X3 = CCNC1(CS[C@H](C(=O)[*:2])N(C)[*:1])CC1; X4 = CNC1(CS[C@H](C(=O)[*:2])N(C)[*:1])CC1; NMeLeu(4-OH) = CN[C@@H](CC(C)(C)O)C(=O)O; NMeL = CN[C@@H](CC(C)C)C(=O)O; dNMeL = CN[C@H](CC(C)C)C(=O)O; dNMeV = CN[C@@H](C(=O)O)C(C)C; dAbu = CC[C@@H](N)C(=O)O
Legend:
Cyclophilin A = Cyclophilin A (Homo sapiens, UniProt P62937); assay: Cyclophilin binding competitive ELISA; details: human recombinant cyclophilin
Cyclophilin B = Cyclophilin B (Homo sapiens, UniProt P23284); assay: Cyclophilin binding competitive ELISA; details: human recombinant cyclophilin
Text: Plates were washed as described above. […] Plates were washed as described above.

[1] = system: HCV RNA replicon Genotype 1b; assay: HCV replicon assay, 1b replicon (LUC); details: Hepatitis C virus, 72 h, read-out: mean EC50 Genotype 1b
Description: Compounds were examined in the human hepatoma cell a HCV RNA replicon containing a stable luciferase (LUC) reporter. The HCV RNA replicon ET contains the 5′ end of HCV (with the HCV Internal Ribosome Entry Site (IRES) and the first few amino acids of the HCV core protein) which drives the production of neomycin phosphotransferase (NeoR) fusion protein. A luciferase reported is incorporated into 1b replicon. The EMCV IRES element controls the translation of the HCV structural proteins NS3-NS5. The NS3 protein cleaves the HCV polyprotein to release the mature NS3, NS4A, NS4B, NS5A and NS5B proteins that are required for HCV replication. At the 3′ end of the replicon is the authentic 3′ NTR of HCV. The activity of the LUC reporter is directly proportional to HCV replication levels and positive-control antiviral compounds produce a reproducible antiviral response using the LUC endpoint.
The compounds were dissolved in DMSO at six half-log concentrations. HCV replicon cells were plated out into 96 well plates dedicated for the analysis of cell numbers (cytotoxicity) or antiviral activity and the next day the compounds were added to the appropriate wells. […] Compound EC50 and EC90 values were derived from HCV RNA levels assessed as HCV RNA replicon derived LUC activity. […] Compound IC50 and IC90 values were calculated using a colorimetric assay as an indication of cell numbers and cytotoxicity. […]

[2] = system: IFN-α production in human peripheral blood mononuclear cells; assay: IFN-α production in human PBMCs (ELISA); assay type: cell-based; details: 2 μM for 24 hours, individual wells
Description: Cryopreserved commercial or previously isolated PBMCs from HCV donors cryopreserved in RPMI1640)/Fetal Bovine/DMSO solution (50/40/10 v/v) were tested with compounds provided herein. […]
PBMC were cultured for 24 hours at 37° C. in RPMI cell culture medium in flat bottom 48 well-plates. Each well received 180 μL of cell suspension (2×10^6 cells/mL). […] At the end of the incubation, the plates are centrifuged at 200 times g for 5 minutes. The cell supernatants are collected and assayed by ELISA for cytokines IFN-α's (the detection reagent recognized 14 of the 15 known human IFN-α subtypes) and IFN-λ1 (IL-29). The cell pellet is washed twice with cold PBS and ATP content are determined by adding 100 μL per well of the Cell Titer Glo® (Promega, Madison, Wis.). Plates are then placed at −80° C. until protein analysis. For the protein analysis, plates are thawed, scraped and the protein content of the cell suspension determined using BCA Protein Assay Kit (23227, ThermoScientific, Rockford Ill.).

[3] = system: HBV entry into cultured hepatocytes (HepaRG cells); assay: Inhibition of HBV entry into HepaRG cells; assay type: cell-based; details: Hepatitis B virus, 288 h, read-out: IC50 HBV entry
[4] = system: Dengue virus DENV1 strain; assay: Dengue virus infection and replication assay in HuH7 cells; assay type: cell-based; details: read-out: IC50 Dengue virus production
Description: Compounds A, B, and F were tested for activity against Dengue virus in a cell-based assay of viral infection and replication. HuH7 cells were infected with the DENV1 strain (multiplicity of infection=0.1). After a 1 hour incubation to allow viral attachment and infection, compounds were added (at concentrations of 1, 3 and 9 μM, in triplicate). Incubation was continued for 5 days, and cells and media were then harvested for analysis. Viral replication was assessed by a real-time RT-PCR assay for virus present in the media, and cells were assayed for metabolic viability (MTT assay).

[5] = system: IFN-λ1 (IL-29) production in human peripheral blood mononuclear cells; assay: IL-29 production in human PBMCs (ELISA); assay type: cell-based; details: 2 μM for 24 hours; for pg/mL IL29 Av.: average; for pg/mL IL29: individual wells
[6] = system: IFN-α production in human peripheral blood mononuclear cells; assay: IFN-α production in human PBMCs (ELISA); assay type: cell-based; details: 2 μM for 24 hours; for pg/mL IFNα Av.: average; for pg/mL IFNα: individual wells
[7] = system: Influenza A H1N1 (A/CA/05/09); assay: Anti-influenza virus cytoprotection assay in MDCK cells; assay type: cell-based; details: in triplicate, read-out: IC50 against Influenza A H1N1
[8] = donor CT2 (test 3) (HCV, cryopreserved PBMCs)
[9] = HepaRG cells, HBs level by ELISA 12 days post-infection
[10] = donor Healthy 2, background subtracted

Sequence of Cyclophilin A (P62937 whole entry): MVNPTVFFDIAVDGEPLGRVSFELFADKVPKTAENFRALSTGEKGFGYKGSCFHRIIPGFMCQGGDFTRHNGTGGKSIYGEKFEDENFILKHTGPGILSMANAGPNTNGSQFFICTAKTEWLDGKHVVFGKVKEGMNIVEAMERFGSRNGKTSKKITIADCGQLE
Sequence of Cyclophilin B (P23284 34-216): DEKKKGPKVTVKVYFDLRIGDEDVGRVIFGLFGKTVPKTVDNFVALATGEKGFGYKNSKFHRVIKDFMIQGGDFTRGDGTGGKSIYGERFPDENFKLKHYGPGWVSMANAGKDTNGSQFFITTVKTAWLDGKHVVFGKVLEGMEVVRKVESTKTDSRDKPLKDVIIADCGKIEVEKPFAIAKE

| SMILES | IC50 (Cyclophilin A) [nM] | IC50 (Cyclophilin B) [nM] | EC50 [1] [nM] | pg/mL IFNα [2, 8] [pg/mL] | IC50 [3, 9] [nM] | IC50 ([4]; DENV1, Huh-7, 120 h) [nM] | pg/mL IL29 ([5]; donor Healthy 1) | pg/mL IL29 Av. ([5]; donor Healthy 3) | pg/mL IL29 ([5]; donor Healthy 3) | pg/mL IFNα Av. ([6]; donor Healthy 1) | pg/mL IFNα ([6]; donor Healthy 1) | pg/mL IFNα Av. ([6]; donor Healthy 2) | pg/mL IFNα ([6]; donor Healthy 2) | pg/mL IFNα Av. ([6]; donor Healthy 3) | pg/mL IFNα ([6]; donor Healthy 3) | other results |
| --- | --- | --- | --- | --- | --- | --- | --- | --- | --- | --- | --- | --- | --- | --- | --- | --- |
| C/C=C/C[C@@H](C)[C@@H](O)C1C(=O)N[C@H](CC)C(=O)N(C)[C@H](SCC2(NC)CC2)C(=O)N(C)[C@@H](CC(C)(C)O)C(=O)N[C@H](C(C)C)C(=O)N(C)[C@H](CC(C)C)C(=O)N[C@H](C)C(=O)N[C@@H](C)C(=O)N(C)[C@H](CC(C)C)C(=O)N(C)[C@H](CC(C)C)C(=O)N(C)[C@H](C(C)C)C(=O)N1C (stereo partly shown) [Compound G] (cyclo(A[dNMeL][dNMeL][dNMeV][ξNMeBmt][dAbu][X4][NMeLeu(4-OH)][dV][dNMeL][dA])) | 29 | 50 | 60 |  |  |  |  |  |  |  |  |  |  |  |  |  |
| C/C=C/C[C@@H](C)[C@@H](O)C1C(=O)N[C@H](CC)C(=O)N(C)[C@H](SCC2(NCC)CC2)C(=O)N(C)[C@@H](CC(C)(C)O)C(=O)N[C@H](C(C)C)C(=O)N(C)[C@H](CC(C)C)C(=O)N[C@H](C)C(=O)N[C@@H](C)C(=O)N(C)[C@H](CC(C)C)C(=O)N(C)[C@H](CC(C)C)C(=O)N(C)[C@H](C(C)C)C(=O)N1C (stereo partly shown) [Compound H] (cyclo(A[dNMeL][dNMeL][dNMeV][ξNMeBmt][dAbu][X3][NMeLeu(4-OH)][dV][dNMeL][dA])) | 14 | 16 | 40 |  |  |  |  |  |  |  |  |  |  |  |  |  |
| CC=CC[C@@H](C)[C@@H](O)C1C(=O)NC(CC)C(=O)N(C)C(SCC2(N(C)C)CC2)C(=O)N(C)[C@@H](CC(C)(C)O)C(=O)NC(C(C)C)C(=O)N(C)C(CC(C)C)C(=O)NC(C)C(=O)NC(C)C(=O)N(C)C(CC(C)C)C(=O)N(C)C(CC(C)C)C(=O)N(C)C(C(C)C)C(=O)N1C (stereo in doubt) [Compound A] |  |  |  | 7 | 1600 | > 9000 | <LOQ | <LOQ | <LOQ | <LOQ | <LOQ | <LOQ | <LOQ | <LOQ | <LOQ | pg/mL IFNα ([2]; donor CT2 (HCV), first test): 4 pg/mL; pg/mL IL29 Av. ([5]; donor Healthy 1): <LOQ |
| CC=CC[C@@H](C)[C@@H](O)C1C(=O)NC(CC)C(=O)N(C)C(SCC2(N(C)C(C)C)CC2)C(=O)N(C)[C@@H](CC(C)(C)O)C(=O)NC(C(C)C)C(=O)N(C)C(CC(C)C)C(=O)NC(C)C(=O)NC(C)C(=O)N(C)C(CC(C)C)C(=O)N(C)C(CC(C)C)C(=O)N(C)C(C(C)C)C(=O)N1C (stereo in doubt) [Compound B] |  |  |  | 8 | < 1000 |  | 20 pg/mL and <LOQ | <LOQ | <LOQ | <LOQ | <LOQ | <LOQ | <LOQ | <LOQ | <LOQ | IC50 ([4]; Huh-7, 120 h, HuH7 cells, DENV1, 5 days, real-time RT-PCR of media): 1000 nM; pg/mL IL29 Av. [5, 10]: <LOQ; pg/mL IL29 [5, 10]: <LOQ |
| C/C=C/C[C@@H](C)[C@@H](O)C1C(=O)N[C@H](CC)C(=O)N(C)[C@H](SCC2(N(C)C)CCC2)C(=O)N(C)[C@@H](CC(C)C)C(=O)N(Cc2ccccc2)[C@H](C(C)C)C(=O)N(C)[C@H](CC(C)C)C(=O)N[C@H](C)C(=O)N[C@@H](C)C(=O)N(C)[C@H](CC(C)C)C(=O)N(C)[C@H](CC(C)C)C(=O)N(C)[C@H](C(C)C)C(=O)N1C (stereo partly shown) [Compound F] (cyclo(A[dNMeL][dNMeL][dNMeV][ξNMeBmt][dAbu][X1][NMeL][X2][dNMeL][dA])) |  |  |  |  |  | 1400 |  |  |  |  |  |  |  |  |  | IC50 [7]: 5400 nM; IC50 ([3]; HepaRG): < 1000 nM |
